Measurements from patent US11285127B2, “Compositions and methods for lowering triglycerides without raising LDL-C levels in a subject on concomitant statin therapy” (Amarin Pharmaceuticals Ireland Limited, priority 2013, dated 2022).

System: patients with fasting triglyceride levels >200 mg/dl and <500 mg/dl despite statin therapy
Assay: 12-week study: lipoprotein particle concentration (VLDL, LDL, HDL; nuclear magnetic resonance)
Assay type: in vivo, human
Source text: Parameters (a)-(z) can be measured in accordance with any clinically acceptable methodology. For example, triglycerides, total cholesterol, HDL-C and fasting blood sugar can be sample from serum and analyzed using standard photometry techniques. VLDL-TG, LDL-C and VLDL-C can be calculated or determined using serum lipoprotein fractionation by preparative ultracentrifugation and subsequent quantitative analysis by refractometry or by analytic ultracentrifugal methodology. Apo A1, Apo B and hsCRP can be determined from serum using standard nephelometry techniques. Lipoprotein (a) can be determined from serum using standard turbidimetric immunoassay techniques. LDL particle number and particle size can be determined using nuclear magnetic resonance (NMR) spectrometry. Remnants lipoproteins and LDL-phospholipase A2 can be determined from EDTA plasma or serum and serum, respectively, using enzymatic immunoseparation techniques. Oxidized LDL, intercellular adhesion molecule-1 and interleukin-2 levels can be determined from serum using standard enzyme immunoassay techniques. These techniques are described in detail in standard textbooks, for example Tietz Fundamentals of Clinical Chemistry, 6th Ed. (Burtis, Ashwood and Borter Eds.), WB Saunders Company.
A multi-center, placebo-controlled, randomized, double-blind, 12-week study was performed to evaluate the efficacy and safety of >96% E-EPA in patients with fasting triglyceride levels >200 mg/dl and <500 mg/dl despite statin therapy (the mean of two qualifying entry values needed to be >185 mg/dl and at least one of the values needed to be >200 mg/dl). The primary objective of the study was to determine the efficacy of >96% E-EPA 2 g daily and 4 g daily, compared to placebo, in lowering fasting TG levels in patients with high risk for cardiovascular disease and with fasting TG levels 200 mg/dl and <500 mg/dl, despite treatment to LDL-C goal on statin therapy.
The secondary objectives of this study were the following: • 1. To determine the safety and tolerability of >96% E-EPA 2 g daily and 4 g daily; • 2. To determine the effect of >96% E-EPA on lipid and apolipoprotein profiles including total cholesterol (TC), non-high-density lipoprotein cholesterol (non-HDL-C), low density lipoprotein cholesterol (LDL-C), high density lipoprotein cholesterol (HDL-C), and […]; • 3. To determine the effect of >96% E-EPA on lipoprotein associated phospholipase A2 (Lp-PLA2) from baseline to week 12; • 4. To determine the effect of >96% E-EPA on low-density lipoprotein (LDL) particle number and size; • 5. To determine the effect of >96% E-EPA on oxidized LDL; • 6. To determine the effect of >96% E-EPA on fasting plasma glucose (FPG) and hemoglobin A1c (HbA1c); • 7. To determine the effect of >96% E-EPA on insulin resistance; • 8. To determine the effect of >96% E-EPA on high-sensitivity C-reactive protein (hsCRP); • 9. To determine the effects of >96% E-EPA 2 g daily and 4 g daily on the incorporation of fatty acids into red blood cell membranes and into plasma phospholipids; • 10. To explore the relationship between baseline fasting TG levels and the reduction in fasting TG levels; and • 11. To explore the relationship between changes of fatty acid concentrations in plasma and red blood cell membranes, and the reduction in fasting TG levels.
The primary efficacy variable for the double-blind treatment period was percent change in TG from baseline to Week 12 endpoint. […]

[1] = IPE 4 g/day (n = 216), 12 weeks
[2] = IPE 4 g/day (n = 216); 12 weeks
[3] = IPE 4 g/day (n = 216); 12 weeks; IDL (23-29 nm)
[4] = IPE 4 g/day (n = 216); 12 weeks; large HDL (9.4-14.0 nm)
[5] = IPE 4 g/day (n = 216); 12 weeks; large LDL (20.5-23.0 nm)
[6] = IPE 4 g/day (n = 216); 12 weeks; large VLDL (>60 nm)
[7] = IPE 4 g/day (n = 216); 12 weeks; medium HDL (8.2-9.4 nm)
[8] = IPE 4 g/day (n = 216); 12 weeks; medium VLDL (42-60 nm)
[9] = IPE 4 g/day (n = 216); 12 weeks; small HDL (7.3-8.2 nm)
[10] = IPE 4 g/day (n = 216); 12 weeks; small LDL (18.0-20.5 nm)
[11] = IPE 4 g/day (n = 216); 12 weeks; small VLDL (29-42 nm)
[12] = IPE 4 g/day vs placebo; 12 weeks; Hodges-Lehmann median

`CC/C=C\C/C=C\C/C=C\C/C=C\C/C=C\CCCC(=O)OCC` [AMR101, ethyl eicosapentaenoate] was tested, and the “Total VLDL particle concentration, End of Treatment (median)” value (“Total VLDL particle concentration, End” for short) (IPE 2 g/day (n = 222), 12 weeks) was 122.4 nmol/L, the “IDL particle concentration, Change from Baseline % (median)” value [1] was 23.7% and the “IDL particle concentration, End of Treatment (median)” value [1] was 63.0 nmol/L. The “Large HDL particle concentration, Change from Baseline % (median)” value [1] was −21.6%, the “Large HDL particle concentration, End of Treatment (median)” value [1] was 1.9 µmol/L and the “Large LDL particle concentration, Change from Baseline % (median)” value [1] was 55.2%. For the same compound, the “Large LDL particle concentration, End of Treatment (median)” value [1] was 172.5 nmol/L, the “Large VLDL particle concentration, Change from Baseline % (median)” value [1] was −41.9% and the Large VLDL particle concentration, End of Treatment (median) [1] was 7.7 nM. The “Medium HDL particle concentration, Change from Baseline % (median)” value [1] was 4.2%, the “Medium HDL particle concentration, End of Treatment (median)” value [1] was 6.9 µmol/L and the “Medium VLDL particle concentration, Change from Baseline % (median)” value [1] was −6.9%. For the same compound, the “Medium VLDL particle concentration, End of Treatment (median)” value [1] was 49.7 nmol/L, the “Small HDL particle concentration, Change from Baseline % (median)” value [1] was −3.9% and the “Small HDL particle concentration, End of Treatment (median)” value [1] was 23.1 µmol/L. The “Small LDL particle concentration, Change from Baseline % (median)” value [1] was −1.1%, the “Small LDL particle concentration, End of Treatment (median)” value [1] was 902.5 nmol/L and the “Small VLDL particle concentration, Change from Baseline % (median)” value [1] was 8.3%. For the same compound, the “Small VLDL particle concentration, End of Treatment (median)” value [1] was 46.8 nmol/L, the “Total HDL particle concentration, Change from Baseline % (median)” value [1] was −4.0% and the “Total HDL particle concentration, End of Treatment (median)” value [1] was 32.6 µmol/L. The “Total LDL particle concentration, Change from Baseline % (median)” value [1] was 3.8%, the “Total LDL particle concentration, End of Treatment (median)” value [1] was 1191 nmol/L and the “Total VLDL particle concentration, Change from Baseline % (median)” value [1] was −2.5%. The “Total VLDL particle concentration, End” value [1] was 110.0 nmol/L, the “Total HDL particle concentration, Change from Baseline % (median)” value [2] was −4.0% and the “Total HDL particle concentration, End of Treatment (median)” value [2] was 32.6 μmon/L. The “Total LDL particle concentration, Change from Baseline % (median)” value [2] was 3.8%, the “Total LDL particle concentration, End of Treatment (median)” value [2] was 1191 nmol/L and the “Total VLDL particle concentration, Change from Baseline % (median)” value [2] was −2.5%. The “Total VLDL particle concentration, End” value [2] was 110.0 nmol/L, the “IDL particle concentration, Change from Baseline % (median)” value [3] was 23.7% and the “IDL particle concentration, End of Treatment (median)” value [3] was 63.0 nmol/L. The “Large HDL particle concentration, Change from Baseline % (median)” value [4] was −21.6%, the “Large HDL particle concentration, End of Treatment (median)” value [4] was 1.9 μmon and the “Large LDL particle concentration, Change from Baseline % (median)” value [5] was 55.2%. The “Large LDL particle concentration, End of Treatment (median)” value [5] was 172.5 nmol/L, the “Large VLDL particle concentration, Change from Baseline % (median)” value [6] was −41.9% and the “Large VLDL particle concentration, End of Treatment (median)” value [6] was 7.7 nM. The “Medium HDL particle concentration, Change from Baseline % (median)” value [7] was 4.2%, the “Medium HDL particle concentration, End of Treatment (median)” value [7] was 6.9 μmon/L and the “Medium VLDL particle concentration, Change from Baseline % (median)” value [8] was −6.9%. For the same compound, the “Medium VLDL particle concentration, End of Treatment (median)” value [8] was 49.7 nmol/L, the “Small HDL particle concentration, Change from Baseline % (median)” value [9] was −3.9% and the “Small HDL particle concentration, End of Treatment (median)” value [9] was 23.1 μmon/L. For the same compound, the “Small LDL particle concentration, Change from Baseline % (median)” value [10] was −1.1%, the “Small LDL particle concentration, End of Treatment (median)” value [10] was 902.5 nmol/L and the “Small VLDL particle concentration, Change from Baseline % (median)” value [11] was 8.3%. The “Small VLDL particle concentration, End of Treatment (median)” value [11] was 46.8 nmol/L, the “Total HDL particle concentration, Median Change From Baseline IPE 4 g/day vs Placebo, %” value [12] was −7.4% and the “Total LDL particle concentration, Median Change From Baseline IPE 4 g/day vs Placebo, %” value [12] was −7.7%. For the same compound, the “Total VLDL particle concentration, Median Change From Baseline IPE 4 g/day vs Placebo, %” value [12] was −12.2%, the “IDL particle concentration, Median Change From Baseline IPE 4 g/day vs Placebo, %” value (IPE 4 g/day vs placebo; 12 weeks; Hodges-Lehmann median; IDL (23-29 nm)) was 10.0% and the “Large HDL particle concentration, Median Change From Baseline IPE 4 g/day vs Placebo, %” value (IPE 4 g/day vs placebo; 12 weeks; Hodges-Lehmann median; large HDL (9.4-14.0 nm)) was −31.0%. For the same compound, the “Large LDL particle concentration, Median Change From Baseline IPE 4 g/day vs Placebo, %” value (IPE 4 g/day vs placebo; 12 weeks; Hodges-Lehmann median; large LDL (20.5-23.0 nm)) was 34.2%, the “Large VLDL particle concentration, Median Change From Baseline IPE 4 g/day vs Placebo, %” value (IPE 4 g/day vs placebo; 12 weeks; Hodges-Lehmann median; large VLDL (>60 nm)) was −46.4% and the “Medium HDL particle concentration, Median Change From Baseline IPE 4 g/day vs Placebo, %” value (IPE 4 g/day vs placebo; 12 weeks; Hodges-Lehmann median; medium HDL (8.2-9.4 nm)) was −6.5%. The “Medium VLDL particle concentration, Median Change From Baseline IPE 4 g/day vs Placebo, %” value (IPE 4 g/day vs placebo; 12 weeks; Hodges-Lehmann median; medium VLDL (42-60 nm)) was −12.1%, the “Small HDL particle concentration, Median Change From Baseline IPE 4 g/day vs Placebo, %” value (IPE 4 g/day vs placebo; 12 weeks; Hodges-Lehmann median; small HDL (7.3-8.2 nm)) was −2.8% and the “Small LDL particle concentration, Median Change From Baseline IPE 4 g/day vs Placebo, %” value (IPE 4 g/day vs placebo; 12 weeks; Hodges-Lehmann median; small LDL (18.0-20.5 nm)) was −13.5%. The “Small VLDL particle concentration, Median Change From Baseline IPE 4 g/day vs Placebo, %” value (IPE 4 g/day vs placebo; 12 weeks; Hodges-Lehmann median; small VLDL (29-42 nm)) was 2.8%.
